The text below walks through data of US8497123B2, “Sterol glucoside toxins” (priority 2000, dated 2013).

Data set [1] concerns adult rat neocortex cortical wedges. Format: cell-based. Conditions: for field potential response with AMPA antagonist NBQX: co-application of NBQX or other AMPA antagonists; for field potential response: cortical wedge, Mg2+-free buffer; for field potential response with NMDA receptor antagonists (AP5, kynurenate, MK801): co-application of NMDA antagonist. As for the experimental part:
Cortical ‘wedges’ were prepared as described previously (Shaw et al., 1996). In brief, animals were anesthetized with CO2, decapitated, and a cortical block rapidly removed and placed in cold Krebs-Henseleit buffer containing (in mM): NaCl 124, KCl 3.3, NaHCO3 25, glucose 10, KH2PO4 1.2, CaCl2 2.4, and MgSO4 1.2, bubbled with 5% CO2/95% O2, pH 7.4. The cortical block was sectioned into […] thick coronal slices using a Vibratome (Campden Instruments) and the slices cut into pie shaped wedges in which the white matter formed the narrow edge of the wedge. Each wedge was placed on a net across a grease gap between two fluid filled chambers. The cortical side of the wedge was bathed (at room temperature, approx. 25° C.) in buffer lacking Mg^2+; the callosal portion was bathed in buffer containing Mg^2+ to minimize neural activity. Field potentials were differentially recorded between the two chambers using two Ag/AgCl electrodes. Recordings from up to 6 wedges, each in individual chambers, could be made simultaneously for each experiment. The wedges were continuously perfused on the cortical side with oxygenated, Mg^2+-free buffer using a gravity feed system. Using this system, drugs could be rapidly substituted for control media to examine response characteristics. Wedges typically survived for up to 8 hrs. Responses were recorded on LabView™ after amplification and A/D conversion and the traces were charted in Excel™ for Windows™. Statistical analysis of peak response amplitude was performed by one-way ANOVA using Bonferroni's post test with GraphPad Prism™.

Data set [2] has as its system human cortical astrocytes. Format: cell-based. The following applies: for apoptotic cell loss (cell density, caspase-3): cortical astrocytes on coverslips. As for the experimental part: FIG. 5: Caspase-3 labeling of human cortical astrocytes in tissue culture. Fetal human telencephalic astrocytes were grown to confluency and then exposed to NMDA, BSSG, cholesterol glucoside (CG), or hydrogen peroxide (H2O2) for various periods. […] At longer time points, the overall numbers of cells in these conditions declined.
We have raised cortical astrocytes on coverslips in culture, exposing them to […], or cholesterol glucoside. Cell loss was measured directly by cell density measurements; apoptosis was measured by staining cells for caspase-3 labeling.

Data set [3] concerns rat cortical slices. The following applies: for LDH release (cell death) / LDH release in presence of AP5 / NMDA antagonists: rat cortical slices; for LDH release (cell death): 1 hr at 37° C.; for LDH release in presence of AP5 / NMDA antagonists: plus AP5. As for the experimental part: Cortical slices were prepared as described above in the glutamate release experiments and placed in tissue culture wells containing Krebs-Heinsleight buffer supplemented with 0.0004% H2O2 and 1 mg/mL glucose. […] For additional comparison and to establish the limits of the method, some slices were freeze-thawed to kill all the cells. Alternatively, some slices were incubated in buffer containing 1.2 mM Mg^2+ in order to diminish spontaneous neural activity. At the end of the 1 hr incubation period, 3 samples (100 μl of buffer, each sample) were taken from each well. LDH assays were performed on these samples using a LDH diagnostic kit (Sigma) following the manufacturer's protocol with some modifications. In brief, 0.5 ml of pyruvate solution was mixed with 0.5 mg pre-weighed NADH. 100 μl of slice medium (free of slices) was added to the mixture and incubated for 30 min at 37° C. 0.5 ml of Sigma coloring reagent (2, 4-dinitrophenylhydrazine in HCl, 2 mg/ml) was added to develop the color and the mixture was incubated for 20 min at room temperature. 5 ml of 0.4 N NaOH were added to each tube. After 5 min, optical density was read at 440 nm. Standard curves were prepared for each assay using different concentrations of pyruvate solution (0-960 units). LDH activity (in International Units) was calculated from the standard curve and normalized by total protein content of each slice as determined by the Lowry protein assay (Peterson, 1979). One International Unit represents the amount of enzyme required to convert 1 μmol of substrate/minute at room temperature.
(§1) Data for LDH and glutamate release experiments were analyzed for significance by one way ANOVA using Dunnett's and Bonferroni's post tests with GraphPad Prism™.
(In general: Release of lactate dehydrogenase indicates damage to the cell membrane.)

Data set [4] deals with rat cortical slices. Format: cell-based. As for the experimental part: Brain slices were taken from cortical blocks in which all subcortical tissue had been removed. […] slices were cut using a modified slice cutter (Van Huizen et al., 1989). Slices were rinsed twice for 5 min in Mg^+2 containing Krebs-Henseleit buffer pH 7.4. Incubation media consisted of 100 μM cold glutamate, 20 μM AP5 and 10 μM DNQX, the latter NMDA or AMPA antagonists, respectively. 10 nM of [^3H]-glutamate was added to the mixture and incubated for 1 hr at 37° C. under in oxygenated atmosphere (O2/CO2=95/5%). Experimental treatments were performed in […] Mg^+2 free buffer placed in tissue culture wells containing different concentrations of MSO or isolated BSSG fractions of cycad flour. Slices were removed at the end of incubation period and the supernatant removed for scintillation counting. The supernatant fractions were placed in scintillation vials containing NEN Formula 989 for a minimum of 12 hrs before being counted in a Beckman LS6000 scintillation counter. Results were normalized to the dpm counts of respective controls.
as §1

The test system of data set [5] is Rats. Conditions: rats fed MSO.
Experimental: Terminal deoxynucleotidyl transferase (TdT) mediated dUTP-digoxigenin (DIG) nickend labeling (TUNEL) was carried out using an Intergen ApopTag Plus peroxidase kit using the manufacturer's protocol adapted from Gavrieli et al. (1992) with some modifications. […] Briefly, 20 μM thick coronal sections were cut on a cryostat then fixed in 1% paraformaldehyde at room temperature for 2 days. […] After rinsing with PBS, the sections were then exposed to 11 μL/cm^2 working strength of TdT enzyme for 1 hr at 37° C. After washing in PBS, 15 μL/cm^2 of anti-digoxigenin-peroxidase was applied for 30 min in a humidified chamber at room temperature. Colour was developed by adding 125 μl DAB substrate working solution for 6 min. Slides were counter-stained with methyl green for 25 minutes at room temperature. Positive apoptosis controls were generated by pre-incubating sections with DNAase (Sigma).
The mark [6] stands for this setting: fetal human telencephalic astrocytes, vs. control (DMEM).

Molecules are shown by their SMILES. “Also recorded” adds a separate entry of the source. Where two headings read alike, the source gives them in different places.

`Cc1onc(O)c1CC(N)C(=O)O` (stereo not drawn) [AMPA, α-amino-3-hydroxy-5-methyl-4-isoxazolepropionic acid]: the “field potential response with AMPA antagonist NBQX” value in data set [1] was “blocked”.
Turning to `CC[C@H](CC[C@@H](C)[C@H]1CC[C@H]2[C@@H]3CC=C4C[C@@H](O[C@@H]5O[C@H](CO)[C@@H](O)[C@H](O)[C@H]5O)CC[C@]4(C)[C@H]3CC[C@]12C)C(C)C` [BSSG, beta-sitostrol-beta-D-glucoside (5-cholesten-24b-ethyl-3b-ol-D-glucoside)], the field potential response entry in data set [1] (bath application) is on record as “qualitative similarity”. Also, in data set [2], the “apoptotic cell loss (cell density, caspase-3)” value (“apoptotic cell loss” for short) is reported as “time-dependent apoptotic cell loss”. In addition, the caspase-3 positive labeling result in data set [2] (setting [6]) is “significant caspase-3 positive labeling”. In addition, the “LDH release (cell death)” value in data set [3] is recorded as “qualitative similarity”.
Turning to `OO` [H2O2, hydrogen peroxide], the caspase-3 positive labeling result in data set [2] (human) was “significant caspase-3 positive labeling”. In addition, the “effect on LDH release” value in data set [3] is given as “did not affect”.
Turning to `CS(=N)(=O)CC[C@H](N)C(=O)O` (stereo partly shown) [MSO, methionine sulfoximine], the “calcium dependence of [3H]-glutamate release” value in data set [4] (calcium 0 (L) or 2 mM (H)) was “calcium dependent”. Further, the “preloaded [3H]-glutamate release” value in data set [4] (rat cortical slices) was “significantly increased”. Besides, the “[3H]-glutamate release in presence of AP5” value in data set [4] (rat cortical slices, plus AP5) is “blocked”. For the same compound, the “concentration at which depolarizing field potentials begin” value in data set [1] (bath application, cortical wedge from adult rat) was “approx. 50 μM”. Also, the field potential response entry in data set [1] (bath application) is “depolarizing field potentials”. For the same compound, in data set [1], the “field potential response with AMPA antagonist NBQX” value was “not blocked” and the “field potential response with NMDA receptor antagonists (AP5, kynurenate, MK801)” value is “blocked”. In data set [3], the “LDH release (cell death)” value is “increased cell death” and the “LDH release in presence of AP5 / NMDA antagonists” value is “blocked”. Also, in data set [5], the “apoptosis in CNS” value is recorded as “evidence of apoptosis”.
As for `CN[C@H](CC(=O)O)C(=O)O` [NMDA, N-methyl-D-aspartate], the “field potential response with NMDA receptor antagonists (AP5, kynurenate, MK801)” value in data set [1] is given as “blocked”. Moreover, in data set [2] (setting [6]), the caspase-3 positive labeling result is listed as “significant caspase-3 positive labeling”. Moreover, in data set [3], the “LDH release (cell death)” value is “increased cell death” and the “LDH release in presence of AP5 / NMDA antagonists” value is given as “attenuated; also recorded: blocked”.
`C[C@@H]1O[C@@H](O[C@H]2C[C@@H](O)[C@]3(CO)[C@H]4[C@H](O)C[C@]5(C)[C@@H](C6=CC(=O)OC6)CC[C@]5(O)[C@@H]4CC[C@]3(O)C2)[C@H](O)[C@H](O)[C@H]1O` [Ouabain, ouabain]: the field potential response result in data set [1] (bath application) is “small hyperpolarizing responses”. In data set [3], the “LDH release (cell death)” value is listed as “little LDH release”.
As for `CC(C)CCC[C@@H](C)[C@H]1CC[C@H]2[C@@H]3CC=C4C[C@@H](O[C@@H]5O[C@H](CO)[C@@H](O)[C@H](O)[C@H]5O)CC[C@]4(C)[C@H]3CC[C@]12C` [cholesterol glucoside, 5-cholesten-3b-ol-3b-D-glucoside], the field potential response entry in data set [1] (bath application) is given as “qualitatively similar to β-sitosterol-β-D-glucoside”. Besides, in data set [2], the “apoptotic cell loss” value is “time-dependent apoptotic cell loss”. The caspase-3 positive labeling result in data set [2] (setting [6]) is recorded as “significant caspase-3 positive labeling”. Moreover, in data set [3], the “LDH release (cell death)” value is “qualitatively similar to β-sitosterol-β-D-glucoside”.
Regarding `CC(C)CCC[C@@H](C)[C@H]1CC[C@H]2[C@@H]3CC=C4C[C@@H](O)CC[C@]4(C)[C@H]3CC[C@]12C` [cholesterol], the field potential response entry in data set [1] (bath application) is given as “without effect”. Besides, the “LDH release (cell death)” value in data set [3] was “without effect”.
`CO[C@H]1[C@@H](O)[C@@H](C)O[C@@H](O[C@H]2CC[C@]3(C)[C@H]4CC[C@]5(C)[C@@H](C6=CC(=O)OC6)CC[C@]5(O)[C@@H]4CC[C@]3(O)C2)[C@@H]1O` [emicymarin]: the field potential response entry in data set [1] (bath application) is “small hyperpolarizing responses”. Also, in data set [3], the “LDH release (cell death)” value is listed as “little LDH release”.
Regarding `C=C(C)[C@H]1CN[C@H](C(=O)O)[C@H]1CC(=O)O` [kainic acid], in data set [2], the “apoptotic cell loss” value is “time-dependent apoptotic cell loss”.
On to `CC[C@H](CC[C@@H](C)[C@H]1CC[C@H]2[C@@H]3CC=C4C[C@@H](O)CC[C@]4(C)[C@H]3CC[C@]12C)C(C)C` [β-sitosterol agylcone, beta-sitosterol (stigmasta-5-en-3beta-ol)], for which the field potential response entry in data set [1] (bath application) is on record as “without effect”. Further, the “LDH release (cell death)” value in data set [3] is reported as “without effect”.
